The record followed here is ChEMBL document CHEMBL3272151, “Quantitative structure-activity relationship of chymotrypsin-ligand interactions” (J Med Chem, 1977).

Experiment [1] can be described thus: Binding affinity to chymotrypsin (unknown origin) assessed as deacetylation. The settings on record: Homo sapiens.
Experiment [2] can be described thus: Binding affinity to chymotrypsin (unknown origin) assessed as acetylation at pH 6. The following applies: Homo sapiens.
Experiment [3] in a line: Binding affinity to chymotrypsin (unknown origin) assessed as acetylation at pH 7. The following applies: Homo sapiens.
Experiment [4] in a line: Inhibition of chymotrypsin (unknown origin). The following applies: Homo sapiens.
Experiment [5] is described as follows: Binding affinity to alpha-chymotrypsin (unknown origin). The following applies: Homo sapiens.
Experiment [6] is described as follows: Binding affinity to alpha-chymotrypsin (unknown origin) assessed as hydrolysis. The following applies: Homo sapiens.

Molecules are shown by their SMILES.

Description for Homo sapiens: Inhibition of alpha-chymotrypsin (unknown origin)

With `O=C(Oc1ccc([N+](=O)[O-])cc1)c1ccc([N+](=O)[O-])cc1`, the log K is -3.44 in experiment [1], 3.55 in experiment [2] and 3.96 in experiment [3]. Compound `C1=CCCCC1` gave a log1/Ki in experiment [4] of 2.07. With `O=C(O)CCCc1ccccc1`, in experiment [4], the log1/Ki was determined as 3.22.

In the case of `CCc1ccc(C(=O)Oc2ccc([N+](=O)[O-])cc2)cc1`, the log K came out at 3.87 in experiment [2] and 3.97 in experiment [3]. Turning to `O=C(Oc1ccc([N+](=O)[O-])cc1)c1ccc(C(F)(F)F)cc1`, the log K is -2.69 in experiment [1], 3.41 in experiment [2] and 3.95 in experiment [3].

On to `CCSCC(=O)NCC(=O)OC`, for which, in experiment [5], the log(1/Km) worked out at 1.98. Moreover, in experiment [6], the logKcat is -2.27. For the compound `O=C(Oc1ccc([N+](=O)[O-])cc1)c1ccccc1`, the log K was -3.69 in experiment [1], 2.64 in experiment [2] and 3.16 in experiment [3].

In turn, `C1=Cc2ccccc2C1` returned a log1/Ki in experiment [4] of 3.67. With `O=C(Oc1ccc([N+](=O)[O-])cc1)c1ccc(Cl)cc1`, the log K in experiment [1] was -3.48; in experiment [2], 3.27; in experiment [3] it was 3.56. Turning to `O=C(Oc1ccc([N+](=O)[O-])cc1)c1cccc(Cl)c1`, the log K in experiment [2] came to 3.43; in experiment [3], 3.77. With `O=C(O)CCc1ccccc1`, in experiment [4], the log1/Ki stood at 2.79.

For `CCCCC`, the log1/Ki in experiment [4] amounted to 2.25. `COC(=O)CNC(=O)c1ccc(N)cc1` had a log(1/Km) in experiment [5] of 2.08. Further, the logKcat in experiment [6] was -1.39. `Cc1cccc(C(=O)O)c1` had a log1/Ki in experiment [4] of 2.42. On the same count and under the same terms, the result for `Cc1ccc(C(=O)O)cc1` reads 2.43. `O=C(Oc1ccc([N+](=O)[O-])cc1)c1cccc(F)c1`: the log K in experiment [1] is -0.35; in experiment [2] it was 3.17; in experiment [3], 3.6. In the experiment filed under Homo sapiens, `O=[N+]([O-])c1ccccc1` returned a log1/Ki of 3.02. `c1ccc2cc3ccccc3cc2c1` registered a log1/Ki in the experiment listed under Homo sapiens of 5.26. As to `CCC(=O)NCC(=O)OC`, the log(1/Km) in experiment [5] was 1.42. Besides, in experiment [6], the logKcat is -1.74.

For the compound `O=C(O)c1ccc2ccccc2c1`, the log1/Ki in experiment [4] was determined as 3.86. `O=C(Oc1ccc([N+](=O)[O-])cc1)c1cccc(C(F)(F)F)c1`: the log K was found to be 3.22 in experiment [2] and 3.59 in experiment [3]. Take `O=C(Oc1ccc([N+](=O)[O-])cc1)c1ccc(F)cc1`: the log K in experiment [2] was found to be 2.74; in experiment [3], 3.11.

In turn, `c1ccc2ccccc2c1` displayed a log1/Ki in the experiment filed under Homo sapiens of 3.93. In experiment [5], `COC(=O)CNC(=O)c1ccccn1` returned a log(1/Km) of 2. The logKcat in experiment [6] turned out to be 0.39. In the experiment listed under Homo sapiens, `Cc1ccccc1` displayed a log1/Ki of 2.55. The compound `CCOC(=O)NCC(=O)OC` yielded a log(1/Km) in experiment [5] of 1.19. For the same compound, the logKcat in experiment [6] was -0.88. On the same counts, the results for `COC(=O)CNC(=O)c1ccco1` are 1.71 and -0.01. On the same counts, the results for `COC(=O)CNS(C)(=O)=O` are 1.07 and -1.92.

For the compound `N#Cc1ccc(C(=O)Oc2ccc([N+](=O)[O-])cc2)cc1`, the log K in experiment [2] turned out to be 3.35; in experiment [3] it was 3.94. The compound `COC(=O)CNC(=O)C(F)(F)F` had a log(1/Km) in experiment [5] of 1.27. Further, the logKcat in experiment [6] was -1.07. Take `COC(=O)CNC(=O)C(C)C`: the log(1/Km) in experiment [5] turned out to be 1.34. The logKcat in experiment [6] is -1.68. For the compound `COC(=O)CNC(=O)C(Cl)Cl`, the log(1/Km) in experiment [5] was found to be 1.66. Also, the logKcat in experiment [6] was -1.64. `COc1ccc(C(=O)Oc2ccc([N+](=O)[O-])cc2)cc1`: the results for the log K in experiment [1], in experiment [2] and in experiment [3] were -4.39, 2.78 and 2.97, respectively. In the case of `COC(=O)CNC(=O)Cc1ccccc1`, in experiment [5], the log(1/Km) worked out at 2.1. The logKcat in experiment [6] was -2.22. On the same counts, the results for `COC(=O)CNC(=O)c1cccnc1` are 1.5 and -0.34. Compound `O=C(O)c1ccccc1` had a log1/Ki in experiment [4] of 1.99. In the case of `Cc1ccc(C(=O)Oc2ccc([N+](=O)[O-])cc2)cc1`, the values for the log K in experiment [2] and in experiment [3] were 2.85 and 3.31, respectively. In the experiment filed under Homo sapiens, `Clc1ccccc1` came in with a log1/Ki of 3.09. As to `COC(=O)CNC(C)=O`, the log(1/Km) in experiment [5] was 1.51. In addition, in experiment [6], the logKcat is -1.89. Besides, the log K in experiment [3] was -0.31. On to `CCc1ccccc1`, for which the log1/Ki in the experiment listed under Homo sapiens stood at 2.74. As for `CC(C)(C)c1ccc(C(=O)O)cc1`, the log1/Ki in experiment [4] was determined as 3.89. Take `COC(=O)CNC(=O)c1ccncc1`: the log(1/Km) in experiment [5] was found to be 1.75. For the same compound, the logKcat in experiment [6] is -0.8.
